# US20240279232A1, “USE OF SUBSTITUTED 5-(4-METHYL-6-PHENYL-4H-BENZO[F]IMIDAZO[1,5-A][1,4] DIAZEPIN-3-YL)-1,2,4-O[…] THE TREATMENT OF INFLAMMATORY CONDITIONS” (priority 2021, published 2024)
# What was measured:
# [1] = tested on: iNOS mRNA; assay: iNOS RT-qPCR in activated microglia; type: cell-based, mouse; details: 10 μM
# Method: Mouse microglia were activated with IFNγ/LPS and treated with vehicle or 10 μM GL-IV-03. mRNA was isolated after 15 min, 1 h, 3 h and 6 h and iNOS was quantified using RT-qPCR. Cycle numbers for each sample were normalized to GAPDH using the ΔCt method (n=3). Mouse microglia were activated with IFNγ/LPS and treated with vehicle or 10 μM GL-IV-03 for 24 h. Cellular protein was extracted and analyzed with the mouse iNOS ELISA kit from Abcam (n=3). *, (p<0.05), ** (p<0.01) or *** (p<0.001) significance was calculate with ANOVA.
# iNOS RT-qPCR. 1×10^6 mouse microglia cells were plated in 6 well plates (VWR, 10062-892) in 1-2 mL of media, activated with 50 ng/ml LPS (Invivogen, NC9836) and 150 U/mL IFNγ (R&D Systems, 485MI100), and treated with compounds of interest. […] Plates were incubated for stated times at 37° C. and 5% CO2. mRNA was collected using QIAshredder (Qiagen, 79654) and RNeasy Mini Kit (Qiagen, 74104). mRNA was analyzed using the QuantiFast SYBR Green RT-PCR kit (Qiagen, 204154) along with iNOS primers (F. 5′-ACATCAGGTCGGCCATCACT-3′, R: 5′-CGTACCGGATGAGCTGTGAAT-3′). Expected product size was 87 bp. Data were acquired using an Eppendorf Mastercycler Pro and analyzed by the Delta Ct method. Each measurement was carried out in triplicate and significance analyzed by ANOVA. […]
# [2] = target: α3β3γ2 GABAAR (Homo sapiens, UniProt P18507+P34903); assay: Membrane potential red dye assay; type: cell-based
# Method: To determine the affinity of MP-IV-010 for these receptors, concentration dependent assays were carried out as depicted in FIG. 4A-4C.
# [3] = target: SERT (Homo sapiens, UniProt P31645); assay: PDSP primary binding SERT; details: PDSP primary screening
# Method: (§1) Because reduction of NO could not be reversed by GABAAR antagonists, the possible binding of MP-IV-010 to other cellular receptors was evaluated in collaboration with the NIMH Psychoactive Drug Screening Program.
# (§2) Psychoactive Drug Screening Program. Detailed protocols for the primary and secondary radioligand binding assays can be found in the National Institute of Mental Health's Psychoactive Drug Screening Program (NIMH PDSP) Assay Protocol Book. Briefly, primary and secondary radioligand binding assays are carried out in a final of volume of 125 μL per well in appropriate binding buffer. The radioactive ligand concentration is close to the Kd. Total binding and nonspecific binding are determined in the absence and presence of 10 μM of appropriate reference compound, respectively. In brief, plates are usually incubated at room temperature and in the dark for 90 min. Reactions are stopped by vacuum filtration onto 0.3% polyethyleneimine (PEI) soaked 96-well filter mats using a 96-well Filtermate harvester, followed by three washes with cold PBS buffer. Scintillation cocktail is then melted onto the microwave-dried filters on a hot plate and radioactivity counted in a Microbeta counter. The data (n=6) were analyzed by nonlinear regression.
# [4] = target: Alpha1D (Homo sapiens, UniProt P25100); assay: PDSP primary binding Alpha1D; details: PDSP primary screening
# Method: as §1, §2
# [5] = target: 5-HT2B (Homo sapiens, UniProt P41595); assay: PDSP primary binding 5-HT2B; details: PDSP primary screening
# Method: as §1, §2
# [6] = target: 5-HT1A (Homo sapiens, UniProt P08908); assay: PDSP primary binding 5-HT1A; details: PDSP primary screening
# Method: as §1, §2
# [7] = target: PBR (Rattus norvegicus, UniProt P16257); assay: PDSP primary binding PBR; details: PDSP primary screening
# Method: as §1, §2
# [8] = tested on: GABAA; assay: PDSP primary binding GABAA; details: PDSP primary screening
# Method: as §1, §2
# [9] = target: H3 (Homo sapiens, UniProt Q9Y5N1); assay: PDSP primary binding H3; details: PDSP primary screening
# Method: as §1, §2
# [10] = target: Alpha2B (Homo sapiens, UniProt P18089); assay: PDSP primary binding Alpha2B; details: PDSP primary screening
# Method: as §1, §2
# [11] = target: 5-HT5A (Homo sapiens, UniProt P47898); assay: PDSP primary binding 5-HT5A; details: PDSP primary screening
# Method: as §1, §2
# [12] = target: M1 (Homo sapiens, UniProt P11229); assay: PDSP primary binding M1; details: PDSP primary screening
# Method: as §1, §2
# [13] = target: 5-HT6 (Homo sapiens, UniProt P50406); assay: PDSP primary binding 5-HT6; details: PDSP primary screening
# Method: as §1, §2
# [14] = target: Beta2 (Homo sapiens, UniProt P07550); assay: PDSP primary binding Beta2; details: PDSP primary screening
# Method: as §1, §2
# [15] = target: H2 (Homo sapiens, UniProt P25021); assay: PDSP primary binding H2; details: PDSP primary screening
# Method: as §1, §2
# [16] = target: Beta3 (Homo sapiens, UniProt P13945); assay: PDSP primary binding Beta3; details: PDSP primary screening
# Method: as §1, §2
# [17] = target: 5-HT2C (Homo sapiens, UniProt P28335); assay: PDSP primary binding 5-HT2C; details: PDSP primary screening
# Method: as §1, §2
# [18] = target: Alpha1B (Homo sapiens, UniProt P35368); assay: PDSP primary binding Alpha1B; details: PDSP primary screening
# Method: as §1, §2
# [19] = target: 5-HT2A (Homo sapiens, UniProt P28223); assay: PDSP primary binding 5-HT2A; details: PDSP primary screening
# Method: as §1, §2
# [20] = target: HERG (Homo sapiens, UniProt Q12809); assay: PDSP primary HERG binding; details: PDSP primary screening
# Method: as §1, §2
# [21] = target: M3 (Homo sapiens, UniProt P20309); assay: PDSP primary binding M3; details: PDSP primary screening
# Method: as §1, §2
# [22] = target: H4 (Homo sapiens, UniProt Q9H3N8); assay: PDSP primary binding H4; details: PDSP primary screening
# Method: as §1, §2
# [23] = tested on: Calcium Channel; assay: PDSP primary binding Calcium Channel; details: PDSP primary screening
# Method: as §1, §2
# [24] = target: M4 (Homo sapiens, UniProt P08173); assay: PDSP primary binding M4; details: PDSP primary screening
# Method: as §1, §2
# [25] = target: DAT (Homo sapiens, UniProt Q01959); assay: PDSP primary binding DAT; details: PDSP primary screening
# Method: as §1, §2
# [26] = target: Alpha1A (Homo sapiens, UniProt P35348); assay: PDSP primary binding Alpha1A; details: PDSP primary screening
# Method: as §1, §2
structure (smiles),measurement,setting,value
"CCc1noc(-c2ncn3c2[C@@H](C)N=C(c2ccccc2F)c2cc(C4CC4)ccc2-3)n1 [GL-IV-03, (R)-5-(8-Cyclopropyl-6-(2-fluorophenyl)-4-methyl-4H-benzo[f]imidazo[1,5-a][1,4]diazepin-3-yl)-3-ethyl-1,2,4-oxadiazole]",iNOS mRNA levels,"[1]; 15, 60, and 180 minutes",reduced
same,iNOS mRNA levels,[1]; after 6 h,increased
"C#Cc1ccc2c(c1)C(c1ccccc1F)=N[C@H](C)c1c(-c3nc(C(C)C)no3)ncn1-2 [MP-IV-010, (R)-5-(8-ethynyl-6-(2-fluorophenyl)-4-methyl-4H-benzo[f]imidazo[1,5-a][1,4]diazepin-3-yl)-3-isopropyl-1,2,4-oxadiazole]",EC50,[2],14.3 µM
same,Percent Competition SERT,[3],22%
same,Percent Competition Alpha1D,[4],9%
same,Percent Competition 5-HT2B,[5],0%
same,Percent Competition 5-HT1A,[6],19%
same,Percent Competition PBR,[7],28%
same,Percent Competition GABAA,[8],−8%
same,Percent Competition H3,[9],−18%
same,Percent Competition Alpha2B,[10],29%
same,Percent Competition 5-HT5A,[11],11%
same,Percent Competition M1,[12],−11%
same,Percent Competition 5-HT6,[13],21%
same,Percent Competition Beta2,[14],20%
same,Percent Competition H2,[15],28%
same,Percent Competition Beta3,[16],38%
same,Percent Competition 5-HT2C,[17],−2%
same,Percent Competition Alpha1B,[18],15%
same,Percent Competition 5-HT2A,[19],−1%
same,Percent Competition HERG binding,[20],29%
same,Percent Competition M3,[21],0%
same,Percent Competition H4,[22],6%
same,Percent Competition Calcium Channel,[23],15%
same,Percent Competition M4,[24],8%
same,Percent Competition DAT,[25],14%
same,Percent Competition Alpha1A,[26],2%
